Laboratory results taken from patent US20240132463A1, “SUBSTITUTED N-(2-(2,6-DIOXOPIPERIDIN-3-YL)-1,3-DIOXOISOINDOLIN-5-YL)ARYLSULFONAMIDE ANALOGS AS MODULATORS OF CEREBLON PROTEIN” (ST. JUDE CHILDREN'S RESEARCH HOSPITAL, INC., priority 2020, published 2024).
Like-named read-outs stand apart in the source and are kept apart here.

Key:
cells = settings: Ref. 13; cited from earlier work
human cancer cell lines = assay: Cell proliferation in human cancer cell lines; type: cell-based; settings: data not shown
6×His-CRBN-DDB1 protein = 6×His-CRBN-DDB1 protein (Homo sapiens (Human), UniProt Q96SW2); assay: CRBN fluorescence polarization assay; type: binding
Experimental: 6×His-CRBN-DDB1 protein (200 nM) and Cy5-O-Len probe (30 nM) were combined in 20 mM HEPES pH 7, 150 mM NaCl, 0.005% Tween-20 assay buffer. […] The plates were incubated in the dark for 1 hour at room temperature and then read on an Envision plate reader (PerkinElmer, Massachusetts, USA).

GSPT1 = GSPT1 (Homo sapiens (Human), UniProt P15170+Q96SW2); assay: GSPT1 degradation by immunoblot in MV4-11 cells; type: cell-based
Experimental: (§1) MV4-11 cells were seeded in 6-well plates (1×10^6 cells per well). After overnight incubation, the cells were treated with indicated concentrations for specific timepoints. […] After blocking the membrane with LI-COR TBS blocking buffer and incubation in primary antibody overnight, the corresponding protein signals were detected using IRDye secondary antibodies and Odyssey Imaging System. Image Studio Lite Ver 5.2 was used for blot quantification. […] IRDye® 800CW Goat anti-Mouse IgG Secondary Antibody and IRDye® 68ORD Goat anti-Rabbit IgG Secondary Antibody were used as secondary antibodies.

Aqueous solubility assay = type: physicochemical; settings: aqueous solubility at pH = 7.4, triplicate
Experimental: Solubility assays were carried out on a Biomek FX lab automation workstation (Beckman Coulter, Inc., Fullerton, CA) using μSOL Evolution software (pION Inc., Woburn, MA). 10 μL of 10 mM compound stock (in DMSO) was added to 190 μL 1-propanol to make a reference stock plate. 5 μL from this reference stock plate were mixed with 70 μL 1-propanol and 75 μL citrate phosphate-buffered saline (PBS;isotonic) to make the reference plate, and the UV spectrum (250-500 nm) of the reference plate was read. 6 μL of 10 mM test compound stock was added to 594 μL buffer in a 96-well storage plate and mixed. The storage plate was sealed and incubated at RT for 18 h. The suspension was then filtered through a 96-well filter plate (pION Inc., Woburn, MA). 75 μL of filtrate was mixed with 75 μL 1-propanol to make the sample plate, and the UV spectrum of the sample plate was read. Calculations were carried out with μSOL Evolution software based on the area under the curve (AUC) of the UV spectrum of the sample and reference plates. All compounds were tested in triplicate.

IKZF1 = IKZF1 (Homo sapiens (Human), UniProt Q13422+Q96SW2); assay: IKZF1 degradation by immunoblot in MV4-11 cells; type: cell-based
Experimental: as §1

MV4-11 cells [1] = assay: MV-4-11 cell viability assay; type: cell-based, human; settings: 72 hours, Cell Titer Glo
Experimental: (§2) MV-4-11 cell line was purchased from the American Type Culture Collection (ATCC, Manassas, VA). The cells were cultured according to recommendations in IMDM cell culture media (ATCC). Exponentially growing MV-4-11 cells were plated at 1,000 cells per well in Corning 8804BC white 384-well assay plates and incubated overnight at 37° C. in a humidified 5% CO2 incubator. Compounds were transferred to the assay plate from a dose-response plate using a Pintool on a Biomek FXP Laboratory Automation Workstation (Beckman Coulter). Cytotoxicity was determined following 72 hours of incubation using Promega Cell Titer Glo reagent according to the manufacturer's recommendation. Luminescence was measured on an Envision plate reader (Perkin-Elmer).
(§3) Compounds were screened in human cancer cell lines and each cell line was cultured in the complete medium recommended by the vendor and seeded in Corning 8804BC white 384-well assay plates at density of 1,000, 1,000, 1,000, 1,500 and 7,500 cells per well, for MV4-11, HD-MB03, MB004, MB002 and MHH-CALL4 cells respectively. After overnight incubation at 37° C. in a humidified 5% CO2 incubator, cells were treated with compounds in dose-response format using a Pintool on a Biomek FXP Laboratory Automation Workstation (Beckman Coulter). […] After 72 h incubation, cell proliferation was assessed using Cell Titer-Glo (CTG) luminescent cell viability assay (Promega) according to the manufacturer's instruction. Luminescence signal was measured using an Envision plate reader (Perkin-Elmer).

MDCKII-MDR1 cells = assay: MDCKII-MDR1 permeability assay; type: in vitro ADME; settings: permeability in MDCK-MDR1 cells
Experimental: High throughput […]1 permeability was performed in the Transwell® 0.4 μm polycarbonate membrane 96-well system with modified methods (Refs. 38-39). […]1 cells were maintained at 37° C. in a humidified incubator with an atmosphere of 5% CO2. The cells were cultured in 75 cm^2 flasks with Dulbecco's Modified Eagle's Medium (DMEM) containing 10% fetal bovine serum (FBS), 1% non-essential amino acids (NEAA), 100 units/ml of penicillin, and 100 μg/ml of streptomycin. The […]1 cells were seeded onto inserts at a density of 2×10^4 and 1×10^4 cells/insert separately. The medium in the wells was exchanged each other day, and the trans epithelial electrical resistance (TEER) value was measured using an epithelial volt-ohm meter (Millipore, Billerica, Massachusetts). […] For transport experiments, each cultured monolayer on the 96-well plate was washed twice with a transport buffer (HBSS/25 mM HEPES, pH 7.4). The permeability assay was initiated by the addition of each compound solution (10 μmol/L) into inserts (apical side, A) or receivers (basolateral side, B). The MDCKII-MDR1 cell monolayers were incubated for 1 hour at 37° C. Fractions were collected from receivers (if apical to basal permeability) or inserts (if basal to apical permeability), and concentrations were assessed by UPLC/MS (Waters; Milford, MA). All compounds were tested in triplicates. The A→B (or B→A) apparent permeability coefficients (Papp) of each compound were calculated using the equation, Papp=dQ/dt×1/AC0, where dQ/dt equals the flux of a drug across the monolayer, A equals the total insert well surface area, and C0 is the initial concentration of substrate in the donor compartment. The efflux ratio was determined by dividing the Papp in the B-A direction by the Papp in the A-B direction.

GSPT1 HiBiT tag protein = GSPT1 HiBiT tag protein (Homo sapiens (Human), UniProt P15170+Q96SW2); assay: hGSPT1 HiBiT assay; type: cell-based; settings: read-out: GSPT1 HiBit EC50; HEK293 hGSPT1 HiBiT cells, 4 hrs incubation
Experimental: hGSPT1 HiBiT cell line. HEK293_hGSPT1_HiBiT tagged cells were generated using CRISPR-Cas12a technology. Briefly, ˜400,000 HEK293 cells were transiently co-transfecting with precomplexed ribonuclear proteins (RNPs) consisting of […] of crRNA (IDT), 62 pmol of Cas12a protein (IDT), 3 ug of ssODN donor (IDT; AltR™ modifications), 78 pmol of electroporation enhancer (IDT), and 200 ng of pMaxGFP (Lonza). The transfection was performed via nucleofection (Lonza, 4D-Nucleofector™ X-unit) using solution P3 and program CM-130 in a small (20 ul) cuvette according to the manufacturer's recommended protocol. Five days post-nucleofection, cells were single cell sorted for GFP+(transfected) cells by FACs in 96-well plates and clonally selected. Clones were screened and verified for the desired modification via targeted deep sequencing using gene specific primers with partial Illumina adapter overhangs as previously described.^58 In brief, clonal cell pellets were harvested, lysed and used to generate gene specific amplicons with partial Illumina adapters in PCR #1. Amplicons were indexed in PCR #2 and pooled with other targeted amplicons for other loci to create sequence diversity. Additionally, 10% PhiX Sequencing Control V3 (Illumina) was added to the pooled amplicon library prior to running the sample on an Miseq Sequencer System (Illumina) to generate paired 2×250 bp reads. […] Editing construct sequences and screening primers are listed below in Table 4.
hGSPT1 HiBiT assay. […] After 4 hrs incubation, the level of GSPT1 HiBiT tag protein was evaluated using Nano-Glo® HiBiT Lytic Detection System (Promega) according to the manufacturer's instruction.

caspase 3/7 = assay: Caspase 3/7 activity assay; type: cell-based, human; settings: MV4-11 cells, Caspase-Glo, 4, 8 and 24 hours, 10 and 100 nM
MV4-11 cells [2] = assay: Lenalidomide competition assay; type: cell-based, human; settings: co-treatment with lenalidomide 10 μM, 72 h
Experimental: as §3

[3] = tested on: CRBN knockout MV4-11 cells; assay: Cell viability in CRBN knockout MV4-11 cells; type: cell-based, human; settings: CRBN knockout vs wild-type MV4-11 cells
Experimental: as §2
CRBN-deficient MV4:11 cells were generated using CRISPR-Cas9 technology. […] Five days post nucleofection, cells were single-cell sorted by FACs to enrich for GFP+(transfected) cells, clonally selected, and verified for the desired targeted modification via targeted deep sequencing using gene specific primers with partial Illumina adapter overhangs (hCRBN.F—5′-[sequence]-3′ (SEQID: 6) and hCRBN.R—5′-[sequence]-3′, (SEQID: 7); overhangs not shown) and analyzed using CRIS.py (Ref. 36).

Chain of GSPT1 (P15170 whole entry): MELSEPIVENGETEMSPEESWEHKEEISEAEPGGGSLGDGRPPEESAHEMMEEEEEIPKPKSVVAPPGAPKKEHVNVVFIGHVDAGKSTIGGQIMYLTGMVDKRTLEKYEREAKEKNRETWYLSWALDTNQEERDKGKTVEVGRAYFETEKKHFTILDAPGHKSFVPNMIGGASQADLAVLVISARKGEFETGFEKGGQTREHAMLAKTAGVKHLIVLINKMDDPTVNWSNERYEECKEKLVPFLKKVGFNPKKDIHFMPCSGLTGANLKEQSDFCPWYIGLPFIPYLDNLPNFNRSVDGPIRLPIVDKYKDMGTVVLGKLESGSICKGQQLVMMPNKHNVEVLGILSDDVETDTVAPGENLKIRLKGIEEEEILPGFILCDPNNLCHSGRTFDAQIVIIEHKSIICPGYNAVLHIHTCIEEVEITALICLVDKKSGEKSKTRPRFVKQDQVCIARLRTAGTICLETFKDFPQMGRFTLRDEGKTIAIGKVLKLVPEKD
Chain of GSPT1 (Q96SW2 whole entry): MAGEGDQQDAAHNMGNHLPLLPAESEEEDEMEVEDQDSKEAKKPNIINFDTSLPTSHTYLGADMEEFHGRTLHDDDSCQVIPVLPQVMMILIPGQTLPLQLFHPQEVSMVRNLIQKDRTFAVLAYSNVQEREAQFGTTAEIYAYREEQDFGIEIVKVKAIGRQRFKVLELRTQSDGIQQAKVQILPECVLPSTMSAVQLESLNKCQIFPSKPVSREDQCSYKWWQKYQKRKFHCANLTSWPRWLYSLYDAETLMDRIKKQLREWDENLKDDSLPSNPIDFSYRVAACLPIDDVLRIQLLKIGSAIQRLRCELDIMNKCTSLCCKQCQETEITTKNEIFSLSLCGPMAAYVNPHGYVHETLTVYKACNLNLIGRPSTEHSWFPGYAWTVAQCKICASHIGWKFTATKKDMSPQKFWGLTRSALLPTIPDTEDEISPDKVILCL
Chain of GSPT1 (Q16531 whole entry partner): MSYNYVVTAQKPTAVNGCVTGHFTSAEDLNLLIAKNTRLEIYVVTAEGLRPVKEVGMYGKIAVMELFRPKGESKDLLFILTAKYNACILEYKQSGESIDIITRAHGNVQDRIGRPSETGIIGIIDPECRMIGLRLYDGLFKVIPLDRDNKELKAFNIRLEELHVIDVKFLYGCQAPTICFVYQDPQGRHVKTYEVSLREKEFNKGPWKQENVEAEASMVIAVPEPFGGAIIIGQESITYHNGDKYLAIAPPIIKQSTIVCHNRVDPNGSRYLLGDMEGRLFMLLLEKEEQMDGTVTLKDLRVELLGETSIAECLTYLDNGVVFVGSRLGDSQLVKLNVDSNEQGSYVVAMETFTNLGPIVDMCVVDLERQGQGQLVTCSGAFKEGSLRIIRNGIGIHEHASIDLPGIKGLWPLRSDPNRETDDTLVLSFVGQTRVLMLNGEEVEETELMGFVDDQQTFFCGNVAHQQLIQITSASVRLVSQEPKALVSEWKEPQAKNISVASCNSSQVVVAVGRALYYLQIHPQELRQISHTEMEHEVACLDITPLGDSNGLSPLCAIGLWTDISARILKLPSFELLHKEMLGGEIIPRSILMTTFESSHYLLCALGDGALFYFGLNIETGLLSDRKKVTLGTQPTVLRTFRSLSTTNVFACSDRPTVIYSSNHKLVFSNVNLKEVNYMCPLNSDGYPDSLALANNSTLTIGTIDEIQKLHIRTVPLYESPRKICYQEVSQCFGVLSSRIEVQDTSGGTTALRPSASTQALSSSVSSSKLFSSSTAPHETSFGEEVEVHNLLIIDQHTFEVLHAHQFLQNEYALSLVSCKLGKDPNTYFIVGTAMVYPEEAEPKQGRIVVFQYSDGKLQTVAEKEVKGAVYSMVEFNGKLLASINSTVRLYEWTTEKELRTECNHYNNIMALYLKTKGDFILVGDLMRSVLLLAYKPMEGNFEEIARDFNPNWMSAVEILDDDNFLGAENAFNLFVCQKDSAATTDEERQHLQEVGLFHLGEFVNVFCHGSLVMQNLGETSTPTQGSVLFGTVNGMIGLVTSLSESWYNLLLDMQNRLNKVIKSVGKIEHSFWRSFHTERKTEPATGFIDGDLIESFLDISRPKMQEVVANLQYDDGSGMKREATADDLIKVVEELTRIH
Chain of 6×His-CRBN-DDB1 protein (Q96SW2 whole entry): as the sequence (Q96SW2 whole entry) above
Chain of 6×His-CRBN-DDB1 protein (Q16531 whole entry partner): as the sequence (Q16531 whole entry partner) above
Chain of GSPT1 HiBiT tag protein (P15170 whole entry): as the sequence (P15170 whole entry) above
Chain of GSPT1 HiBiT tag protein (Q96SW2 whole entry): as the sequence (Q96SW2 whole entry) above
Chain of GSPT1 HiBiT tag protein (Q16531 whole entry partner): as the sequence (Q16531 whole entry partner) above

O=C1CC[C@H](N2Cc3c(OCc4ccc(CN5CCOCC5)cc4)cccc3C2=O)C(=O)N1 [CC-220, (S)-3-(4-((4-(morpholinomethyl)benzyl)oxy)-1-oxoisoindolin-2-yl)piperidine-2,6-dione]
potency in cells relative to lenalidomide (cells): 10 fold

Cc1ccc(NC(=O)NCc2ccc3c(c2)CN(C2CCC(=O)NC2=O)C3=O)cc1Cl (centres unmarked) [CC-885, N-(3-chloro-4-methylphenyl)-N′-[[2-(2,6-dioxo-3-piperidinyl)-2,3-dihydro-1-oxo-1H-isoindol-5-yl]methyl]-urea]
antiproliferative effects in cell lines (human cancer cell lines): displayed antiproliferative effects in all four cell lines

O=C1CCC(N2C(=O)c3ccc(NS(=O)(=O)c4cccc(OC(F)(F)F)c4)cc3C2=O)C(=O)N1 (centres unmarked) [Compound 2, N-(2-(2,6-dioxopiperidin-3-yl)-1,3-dioxoisoindolin-5-yl)-3-(trifluoromethoxy)benzenesulfonamide]
IC50 (6×His-CRBN-DDB1 protein; CRBN FP IC50, cereblon binding, class symbols): < 1000 nM | IC50 (6×His-CRBN-DDB1 protein; CRBN IC50, fluorescence polarization, Cy5-O-Len probe): 72 nM | IC50 (6×His-CRBN-DDB1 protein; fluorescence polarization, Cy5-O-Len probe, read-out: CRBN IC50): 54 nM | effect on protein levels of GSPT1 by immunoblotting (GSPT1; MV4-11 cells (FIG. 6)): no effects | selectivity window GSPT1 over IKZF1 (DC50) (GSPT1; MV4-11 cells, DC50 values at 24 hours): 30 fold | Sol. (Aqueous solubility assay): 64 µM | effect on protein levels of IKZF1 by immunoblotting (IKZF1; MV4-11 cells (FIG. 6)): no effects | IKZF1 protein abundance (IKZF1; MV4-11 cells, treatment over 24 hours): dose-dependent decrease | MV4-11 EC50 (MV4-11 cells [1]): no activity | Papp (MDCKII-MDR1 cells): 4 ×10⁻⁶ cm/s | DC50 (GSPT1 HiBiT tag protein): > 10000 nM

Cc1c(Cl)cccc1S(=O)(=O)Nc1ccc2c(c1)C(=O)N(C1CCC(=O)NC1=O)C2=O (centres unmarked) [Compound 5, 3-chloro-N-(2-(2,6-dioxopiperidin-3-yl)-1,3-dioxoisoindolin-5-yl)-2-methylbenzenesulfonamide]
GSPT1 protein degradation (GSPT1; MV4-11 cells, 24 hours, at 100 nM): 90% | Sol. (Aqueous solubility assay): 64 µM | IKZF1 degradation at 4 hours (IKZF1; MV4-11 cells, 4 hours, any concentration tested): did not significantly degrade IKZF1 | caspase activation (caspase 3/7): only observed at the 24 hour time point | Papp (MDCKII-MDR1 cells): 3.6 ×10⁻⁶ cm/s | antiproliferative effect in presence of lenalidomide (MV4-11 cells [2]): abrogating the antiproliferative effects | antiproliferative activity in absence of CRBN [3]: abolished
